The text below walks through data of PMC11327196, “A phase 1 study to assess the absolute bioavailability, mass balance, pharmacokinetics, metabolism, and excretion of [^14C]-mobocertinib, an oral inhibitor of EGFR exon 20 insertion mutations, in healthy participants” (Investigational New Drugs, 2024).

Usually bioavailability stands for the share of a dose that reaches the circulation, judged against a reference dose that is usually intravenous. For orientation: AUC(0-inf) means the area under the concentration-time curve extrapolated to infinity. A low value points to less exposure.

Data set [1] is described as follows: Period 1 absolute bioavailability study: plasma PK after single oral 160 mg mobocertinib capsules. It is filed as in vivo, human. The protocol:
This was a two-period, open-label, single-dose phase 1 study (NCT03811834) conducted at one clinical site (Celerion, Lincoln, Nebraska, USA) in healthy male participants. The primary objective of Period 1 was to determine the absolute bioavailability of mobocertinib following a single oral dose of 160 mg mobocertinib as capsules and a single intravenous (IV) microdose of 50 µg (~ 2 µCi) [^14C]-mobocertinib. The primary objectives of Period 2 were to (1) assess the cumulative excretion of total radioactivity in urine and feces (mass balance); (2) assess the metabolite profile of mobocertinib in plasma, urine, and feces; and (3) characterize the PK of mobocertinib, AP32960, and AP32914 in plasma, whole blood, and urine, and total radioactivity concentration equivalents in plasma and whole blood following a single oral dose of 160 mg (~ 100 µCi) [^14C]-mobocertinib as an oral solution. A sample size of 6 healthy males was selected without statistical considerations and deemed adequate to meet the study objectives. Furthermore, the sample size was limited based on clinical considerations for human ADME studies and to limit exposure to radioactivity.
On Day 1 of Period 1, following an overnight fast of at least 10 h, participants received a single 160 mg dose of non-radiolabeled mobocertinib as capsules. At 3.75 h post oral dosing (i.e., 15 min before the median oral tmax of ~ 4 h), participants received a nominal dose of 50 µg (~ 2 µCi) [^14C]-mobocertinib as a 15-minute IV infusion. However, due to nonspecific binding of [^14C]-mobocertinib to the dosing syringe and tubing, actual doses administered ranged from 36.8 to 38.7 µg (1.47 to 1.55 µCi). Participants were required to stay in the clinic from Day − 1 through at least the 96-hour blood draw (Day 5) or until a discharge criterion was met (i.e., ≥ 80% of the total administered radioactive dose was recovered in urine and fecal samples or excretion of radioactivity in urine and feces combined had declined to ≤ 1% of the total administered dose per day for ≥ 2 consecutive intervals), up to a maximum of 7 days postdose (Day 8). Blood samples for the measurement of plasma mobocertinib, AP32960, and AP32914 concentrations were collected predose and at 0.5, 1, 2, 3, 4, 5, 6, 8, 12, 24, 36, 48, 72, and 96 h after oral administration. Additional blood samples to determine [^14C]-total radioactivity, [^14C]-mobocertinib, [^14C]-AP32960, and [^14C]-AP32914 in plasma were collected at 3.75 h after oral dosing (i.e., predose for [^14C] assessments), at the end of the IV infusion, and at 10, 20, and 30 min, and 1, 2, 4, 8, 20, 32, 44, 68, and 92 h after the end of infusion. […] Urine and feces were collected before oral dosing (− 48–0 h); urine was collected over 0–3.75 h, 3.75–12 h and 12–24 h after oral dosing; feces were collected from 0 to 3.75 h and 3.75–24 h after oral dosing; both urine and feces were then collected over 24-hour intervals until a discharge criterion was met, or up to Day 8 (168 h postdose).
Plasma, whole blood, and urine samples were assayed for mobocertinib, AP32960, and AP32914 concentrations using liquid chromatography-tandem mass spectrometry (Q2 Solutions, Ithaca, New York, USA). The analytical range for each analyte was 0.250 to 500 ng/mL in whole blood and plasma, and 1.00 to 1000 ng/mL in urine. […] Urine and fecal samples were assayed for total radioactivity following the IV dose of [^14C]-mobocertinib in Period 1, and whole blood, plasma, urine, and fecal samples were assayed for total radioactivity following the oral dose of [^14C]-mobocertinib in Period 2 using liquid scintillation counting (LSC; Celerion, Lincoln, Nebraska, USA; LLOQs: Period 1 urine: 0.115–0.118 ng eq/g, feces: 0.720–0.759 ng eq/g; Period 2 whole blood: 87.3–112 ng eq/g, plasma: 116–132 ng eq/mL, urine: 37.8–46.8 ng eq/g, feces: 110–336 ng eq/g across participants). […]

On the set-up of data set [2]: method as in PMID 34145979. The settings on record: healthy participants, cited from earlier work.
The mark [3] stands for this setting: Period 1, single oral 160 mg mobocertinib capsules, geometric mean (geometric CV%).

Each structure is given as a SMILES string.

As for `C=CC(=O)Nc1cc(Nc2ncc(C(=O)OC(C)C)c(-c3cn(C)c4ccccc34)n2)c(OC)cc1N(C)CCN(C)C` [Mobocertinib], in data set [1] (setting [3]), the CL/F is 152 (64.9) L/h and the Cmax is on record as 56.7 (52.2) ng/mL. In addition, in data set [1] (Period 1, single oral 160 mg mobocertinib capsules, median (range)), the tmax is recorded as 5.0 (4.0–6.0) h. Also, in data set [1] (male, human, Period 1, oral 160 mg capsules AUC∞ vs dose-normalized IV microdose AUC∞, 90% CI 22.4–60.2%, read-out: geometric mean absolute oral bioavailability), the bioavailability was determined as 36.7%. In data set [1] (male, human, Period 1, single oral 160 mg mobocertinib capsules, geometric mean (geometric CV%)), this compound came in with an AUC(0-inf) of 1050 ng·h/mL. In data set [1] (male, human, Period 1, single oral 160 mg mobocertinib capsules, geometric mean (geometric CV%), read-out: Vz/F), the Vd/F was found to be 5030 L. In addition, the half-life in data set [1] (male, human, Period 1, single oral 160 mg mobocertinib capsules, geometric mean (geometric CV%), read-out: t1/2z (converted)) is 22.9 h. The “decrease of combined molar AUC of mobocertinib and its active metabolites” value in data set [2] (coadministration of strong CYP3A inducer rifampin) is 95%. The “increase of combined molar AUC of mobocertinib and its active metabolites” value in data set [2] (coadministration of strong CYP3A inhibitor itraconazole) was 527%.
